From US20090093423A2, “NOVEL 2-SUBSTITUTED METHYL PENAM DERIVATIVES” (Orchid Chemicals and Pharmaceuticals Limited, priority 2006, published 2009)
One block for each compound: values may come before it.

Key:
[1] = tested on: strains resistant to Fluoroquinolones; conditions: Kriengkauykiat et al. 2005; cited from earlier work
A. baumani MRO 14512 = assay: MIC, Agar Dilution Method, resistant clinical isolate; format: cell-based
Protocol: (§1) The novel compounds were tested for the in vitro antibacterial activities by the Agar Dilution Method as specified in documents published by NCCLS, now CLSI, USA. (National Committee for Clinical Laboratory Standards (NCCLS). 2003. Approved standard M7-A6. NCCLS, Villanova, Pa.).
(§2) Tazo was also dissolved in same buffer to get a solution of, e.g., 1 mg/mL. Novel penam derivatives described herein were dissolved in water to get a solution of, e.g., 1 mg/mL.
(§3) The novel compounds and Tazo were also tested individually. The bacterial inoculum was prepared by picking 3 to 5 well-isolated bacterial colonies with the same morphological appearance from an 18-24 h old culture and adjusting the turbidity of the saline suspension to 0.5 McFarland Turbidity Standard equivalent to a bacterial population of 1.5×10^8 colony forming units (CFU) per mL of suspension. The suspension was diluted 1:10 in saline (i.e. 0.5 mL suspension+4.5 mL saline) to get a bacterial population of 1.5×10^7 CFU/mL as inoculum. […] The inoculated petridishes were incubated at 35° C. in an ambient atmosphere for 16-20 h.

A. baumani MRO 14514 = assay: as above; format: cell-based
Protocol: as §1, §2, §3

A. baumani MRO 14515 = assay: as above; format: cell-based
Protocol: as §1, §2, §3

E. coli MRO 10135 = assay: as above; format: cell-based
Protocol: as §1, §2, §3

[2] = tested on: strains resistant to Ceftazidime, Ciprofloxacin, and Piperacillin/Tazo combination; assay: MIC, Agar Dilution Method, resistant panel; format: cell-based
Protocol: as §1, §2, §3

[3] = Minimum bactericidal studies, broth macrodilution; format: cell-based
Protocol: Minimum bactericidal studies were performed by broth macrodilution technique as described by NCCLS.

E. coli MRO 10007 = assay: In vivo efficacy, infected mice; conditions: Swiss albino mice infected with E. coli MRO 10007; Piperacillin:inhibitor 4:1; 7-day survival
Protocol: (§4) The efficacy studies were performed as described earlier (Kuck et al, 1989, Antimicrob. Agents. Chemother. 33(11): 1964-1969). Briefly, Swiss albino mice, 20+2 g, from in-house breeding facility were challenged by the intraperitoneal injection of bacterial suspensions in 0.5 mL of hog gastric mucin (10 to 100 50% lethal doses). […] All the untreated control animals died within 48 h of infection. In each experiment, in-house Tazo was used as an inhibitor control in four doses. Median (50%) effective dose (ED50) were determined by applying the Reed and Muench's method of the 7-day survival ratios.

K. pneumoniae MRO 11008 [4] = assay: In vivo efficacy, infected mice
Protocol: as §4

E. coli MRO 10006 = assay: In vivo efficacy, infected mice; conditions: Swiss albino mice infected with E. coli MRO 10006; Piperacillin:inhibitor 4:1; 7-day survival
Protocol: as §4

[5] = tested on: ESBL producing E. coli strains; assay: In vivo efficacy, infected mice
Protocol: as §4

[6] = tested on: K. pneumoniae 51503 (TEM-10 & -12); assay: MIC, Agar Dilution Method, ESBL producing ATCC isolate; format: cell-based; conditions: inhibitor 4 μg/mL
Protocol: as §1, §2, §3

E. coli BAA-197 (TEM-12) = assay: as above; format: cell-based; conditions: inhibitor 4 μg/mL
Protocol: as §1, §2, §3

[7] = tested on: P. mirabilis BAA-663 (TEM-89); assay: as above; format: cell-based
Protocol: as §1, §2, §3

E. coli BAA-201 (TEM-3) = assay: as above; format: cell-based
Protocol: as §1, §2, §3

E. coli BAA-202 (SHV-1) = assay: as above; format: cell-based
Protocol: as §1, §2, §3

E. coli BAA-200 (SHV-4) = assay: as above; format: cell-based; conditions: for potentiation of Piperacillin compared to Tazo: SHV-4 ESBL producing strain
Protocol: as §1, §2, §3

E. coli BAA-199 (SHV-3) = assay: as above; format: cell-based
Protocol: as §1, §2, §3

E. coli BAA-198 (TEM-26) = assay: as above; format: cell-based
Protocol: as §1, §2, §3

E. coli BAA-196 (TEM-10) = assay: as above; format: cell-based; conditions: inhibitor 4 μg/mL
Protocol: as §1, §2, §3

[8] = Intravenous pharmacokinetics in mice; format: in vivo, Swiss mice
From the text: Blood samples were collected at different time points. These samples were processed and analyzed by HPLC.

[9] = tested on: strains producing the TEM type ESBLs (TEM-10, TEM-12 and TEM-10 and -12); assay: MIC, Agar Dilution Method, TEM panel; format: cell-based; conditions: TEM-10, TEM-12 and TEM-10 and -12 strains; inhibitor 1 μg/mL and 2 μg/mL
Protocol: as §1, §2, §3

K. pneumoniae MRO 11008 [10] = assay: MIC, Agar Dilution Method; format: cell-based; conditions: ESBL producing K. pneumoniae strain; inhibitor 1 μg/mL
Protocol: as §1, §2, §3

[11] = tested on: K. pneumoniae ATCC 700603; assay: MIC, Agar Dilution Method; format: cell-based; conditions: K. pneumoniae 700603, SHV-18
Protocol: as §1, §2, §3

Penicillinase enzyme = assay: β-Lactamase assay (Centa substrate); format: biochemical; conditions: FIG. 1
Protocol: Representative novel compounds were subjected to β-lactamase assay to determine and compare their IC50 with that of Tazo as described elsewhere (Bebrone et. al, 2001, Antimicrob. Agents. Chemother. 45(6): 1868-1871; Jamieson et. al, 2003, Antimicrob. Agents. Chemother. 47(5): 1652-1657). Briefly enzyme inhibition assays with Tazo acid as the standard inhibitor for % inhibitions & IC50 value with optimized concentrations of Penicillinase enzyme & Centa β-lactamase substrate were performed.

[12] = Possibility of conversion of Example 1 to Tazo, LC-MS/MS of plasma; format: in vivo; conditions: Swiss mice, 8 mg/kg along with Piperacillin (32 mg/kg)
Protocol: Blood samples were collected at different time points. These samples were processed and analyzed by LC-MS/MS, which has the capability of simultaneously detecting even the lower concentration of Tazo (20 ng/mL) and the compound obtained from Example 1 (10 ng/mL).

SMILES: CC(C)(O/N=C(\C(=O)N[C@@H]1C(=O)N2C(C(=O)[O-])=C(C[n+]3ccccc3)CS[C@H]12)c1csc(N)n1)C(=O)O [Ceftazidime]
cross-resistance of strains resistant to Fluoroquinolones [1]: 76% | MIC (antibiotic alone) (A. baumani MRO 14512): >64 µg/mL | MIC (antibiotic alone) (A. baumani MRO 14514): >64 µg/mL | MIC (antibiotic alone) (A. baumani MRO 14515): >64 µg/mL | MIC (antibiotic alone) (E. coli MRO 10135): >64 µg/mL

SMILES: C[n+]1ccn(C[C@@]2(C)[C@H](C(=O)[O-])N3C(=O)C[C@H]3S2(=O)=O)n1 [Example 1, 1-{[(2S,3S,5R)-2-Carboxy-3-methyl-4,4,7-trioxo-4-thia-1-azabicyclo[3.2.0]hept-3-yl]methyl}-3-methyl-1H-1,2,3-triazol-3-ium]
potentiated the antibacterial activity of Piperacillin compared to that of Tazo ([2]; inhibitor 4 μg/mL, strains resistant to Ceftazidime and Ciprofloxacin): 2-16 fold | susceptibility of resistant strains to Piperacillin in combination ([2]; strains resistant to Ceftazidime, Ciprofloxacin, and Piperacillin/Tazo combination): susceptible | Minimum bactericidal concentration study, Piperacillin in combination with inhibitor [3]: bacteriostatic | ED50 of Piperacillin in combination with inhibitor (E. coli MRO 10007): 24.88 mg/kg b.w. | ED50 of Piperacillin in combination with inhibitor (K. pneumoniae MRO 11008 [4]; Swiss albino mice infected with K. pneumoniae MRO 11008, Piperacillin:inhibitor 4:1, 7-day survival): 34.89 mg/kg b.w. | increase of efficacy of Piperacillin (K. pneumoniae MRO 11008 [4]; mice, ESBL producing K. pneumoniae strain resistant in vitro to Piperacillin with 1 μg/mL Tazo): three-fold | ED50 of Piperacillin in combination with inhibitor (E. coli MRO 10006): 22.62 mg/kg b.w. | ED50 of Piperacillin in combination, compared to that in combination with Tazo [5]: two-fold lower | MIC of Piperacillin with different concentrations of Tazo or compound of Example 1 [6]: 8 µg/mL | MIC of Piperacillin with different concentrations of Tazo or compound of Example 1 (E. coli BAA-197 (TEM-12)): 4 µg/mL | MIC of Piperacillin with different concentrations of Tazo or compound of Example 1 ([7]; inhibitor 1 μg/mL): 16 µg/mL | MIC of Piperacillin with different concentrations of Tazo or compound of Example 1 ([7]; inhibitor 2 μg/mL): 8 µg/mL | MIC of Piperacillin with different concentrations of Tazo or compound of Example 1 ([7]; inhibitor 4 μg/mL): 8 µg/mL | MIC of Piperacillin with different concentrations of Tazo or compound of Example 1 (E. coli BAA-201 (TEM-3); inhibitor 1 μg/mL): 4 µg/mL | MIC of Piperacillin with different concentrations of Tazo or compound of Example 1 (E. coli BAA-201 (TEM-3); inhibitor 2 μg/mL): 2 µg/mL | MIC of Piperacillin with different concentrations of Tazo or compound of Example 1 (E. coli BAA-201 (TEM-3); inhibitor 4 μg/mL): 2 µg/mL | MIC of Piperacillin with different concentrations of Tazo or compound of Example 1 (E. coli BAA-202 (SHV-1); inhibitor 1 μg/mL): >128 µg/mL | MIC of Piperacillin with different concentrations of Tazo or compound of Example 1 (E. coli BAA-202 (SHV-1); inhibitor 2 μg/mL): >128 µg/mL | MIC of Piperacillin with different concentrations of Tazo or compound of Example 1 (E. coli BAA-202 (SHV-1); inhibitor 4 μg/mL): >128 µg/mL | MIC of Piperacillin with different concentrations of Tazo or compound of Example 1 (E. coli BAA-200 (SHV-4); E. coli BAA-200, SHV-4, inhibitor 4 μg/mL): 2 µg/mL | potentiation of Piperacillin compared to Tazo (E. coli BAA-200 (SHV-4); inhibitor 1 μg/mL): > 16 fold | potentiation of Piperacillin compared to Tazo (E. coli BAA-200 (SHV-4); inhibitor 2 μg/mL): > 32 fold | potentiation of Piperacillin compared to Tazo (E. coli BAA-199 (SHV-3); SHV-3 ESBL producing strain, inhibitor 1 μg/mL): > 16 fold | potentiation of Piperacillin compared to Tazo (E. coli BAA-199 (SHV-3); SHV-3 ESBL producing strain, inhibitor 2 μg/mL): > 32 fold | potentiation of Piperacillin compared to Tazo (in words) (E. coli BAA-199 (SHV-3); SHV-3 producing strain as printed (second mention), inhibitor 4 μg/mL): comparable with Tazo | potentiation of Piperacillin compared to Tazo (E. coli BAA-199 (SHV-3); SHV-3 producing strain, inhibitor 4 μg/mL): > 64 fold | MIC of Piperacillin with different concentrations of Tazo or compound of Example 1 (E. coli BAA-198 (TEM-26); inhibitor 1 μg/mL): 4 µg/mL | MIC of Piperacillin with different concentrations of Tazo or compound of Example 1 (E. coli BAA-198 (TEM-26); inhibitor 2 μg/mL): 4 µg/mL | MIC of Piperacillin with different concentrations of Tazo or compound of Example 1 (E. coli BAA-198 (TEM-26); inhibitor 4 μg/mL): 2 µg/mL | MIC of Piperacillin with different concentrations of Tazo or compound of Example 1 (E. coli BAA-196 (TEM-10)): 4 µg/mL | C0 ([8]; Swiss, mouse, in vivo, iv, 8 mg/kg): 15200 ng/mL | AUC(0-t) ([8]; Swiss, mouse, in vivo, iv, 8 mg/kg, read-out: AUC0-4 h): 5370 ng·h/mL | AUC ([8]; Swiss, mouse, in vivo, iv, 8 mg/kg, read-out: AUC0-∝): 5830 ng·h/mL | half-life ([8]; Swiss, mouse, in vivo, iv, 8 mg/kg, read-out: Elimination half-life (converted)): 16.3 min | systemic exposure ([8]; mice, intravenous, compared with Tazo): higher than that of Tazo | potentiation of Piperacillin compared to Tazo [9]: 2-16 fold | MIC of Piperacillin in combination with 4 μg/mL inhibitor (A. baumani MRO 14512; Pip + 4 μg/mL inhibitor): 4 µg/mL | MIC of Piperacillin in combination with 4 μg/mL inhibitor (A. baumani MRO 14514; Pip + 4 μg/mL inhibitor): 32 µg/mL | MIC of Piperacillin in combination with 4 μg/mL inhibitor (A. baumani MRO 14515; Pip + 4 μg/mL inhibitor): 32 µg/mL | MIC of Piperacillin in combination with 4 μg/mL inhibitor (E. coli MRO 10135; Pip + 4 μg/mL inhibitor): 16 µg/mL | in vitro potentiation of Piperacillin (K. pneumoniae MRO 11008 [10]): 16 fold | MIC of Piperacillin with different concentrations of Tazo or compound of Example 1 ([11]; inhibitor 2 μg/mL): 16 µg/mL | MIC of Piperacillin with different concentrations of Tazo or compound of Example 1 ([11]; inhibitor 4 μg/mL): 16 µg/mL | IC50 compared with Tazo (Penicillinase enzyme): three-fold lower | conversion to Tazo after intravenous administration (LC-MS/MS of plasma) [12]: did not get converted to Tazo

IC50 compared with Tazo (Penicillinase enzyme): three-fold lower
SMILES: CC[n+]1ccn(C[C@@]2(C)[C@H](C(=O)[O-])N3C(=O)C[C@H]3S2(=O)=O)n1 [Example 2, 1-{[(2S,3S,5R)-2-Carboxy-3-methyl-4,4,7-trioxo-4-thia-1-azabicyclo[3.2.0]hept-3-yl]methyl}-3-ethyl-1H-1,2,3-triazol-3-ium]
